Broadly, the inhibition is the drop in the measured response relative to a control, in per cent.

Chain of CDK12/CycK complex (Q9NYV4 whole entry, species assumed): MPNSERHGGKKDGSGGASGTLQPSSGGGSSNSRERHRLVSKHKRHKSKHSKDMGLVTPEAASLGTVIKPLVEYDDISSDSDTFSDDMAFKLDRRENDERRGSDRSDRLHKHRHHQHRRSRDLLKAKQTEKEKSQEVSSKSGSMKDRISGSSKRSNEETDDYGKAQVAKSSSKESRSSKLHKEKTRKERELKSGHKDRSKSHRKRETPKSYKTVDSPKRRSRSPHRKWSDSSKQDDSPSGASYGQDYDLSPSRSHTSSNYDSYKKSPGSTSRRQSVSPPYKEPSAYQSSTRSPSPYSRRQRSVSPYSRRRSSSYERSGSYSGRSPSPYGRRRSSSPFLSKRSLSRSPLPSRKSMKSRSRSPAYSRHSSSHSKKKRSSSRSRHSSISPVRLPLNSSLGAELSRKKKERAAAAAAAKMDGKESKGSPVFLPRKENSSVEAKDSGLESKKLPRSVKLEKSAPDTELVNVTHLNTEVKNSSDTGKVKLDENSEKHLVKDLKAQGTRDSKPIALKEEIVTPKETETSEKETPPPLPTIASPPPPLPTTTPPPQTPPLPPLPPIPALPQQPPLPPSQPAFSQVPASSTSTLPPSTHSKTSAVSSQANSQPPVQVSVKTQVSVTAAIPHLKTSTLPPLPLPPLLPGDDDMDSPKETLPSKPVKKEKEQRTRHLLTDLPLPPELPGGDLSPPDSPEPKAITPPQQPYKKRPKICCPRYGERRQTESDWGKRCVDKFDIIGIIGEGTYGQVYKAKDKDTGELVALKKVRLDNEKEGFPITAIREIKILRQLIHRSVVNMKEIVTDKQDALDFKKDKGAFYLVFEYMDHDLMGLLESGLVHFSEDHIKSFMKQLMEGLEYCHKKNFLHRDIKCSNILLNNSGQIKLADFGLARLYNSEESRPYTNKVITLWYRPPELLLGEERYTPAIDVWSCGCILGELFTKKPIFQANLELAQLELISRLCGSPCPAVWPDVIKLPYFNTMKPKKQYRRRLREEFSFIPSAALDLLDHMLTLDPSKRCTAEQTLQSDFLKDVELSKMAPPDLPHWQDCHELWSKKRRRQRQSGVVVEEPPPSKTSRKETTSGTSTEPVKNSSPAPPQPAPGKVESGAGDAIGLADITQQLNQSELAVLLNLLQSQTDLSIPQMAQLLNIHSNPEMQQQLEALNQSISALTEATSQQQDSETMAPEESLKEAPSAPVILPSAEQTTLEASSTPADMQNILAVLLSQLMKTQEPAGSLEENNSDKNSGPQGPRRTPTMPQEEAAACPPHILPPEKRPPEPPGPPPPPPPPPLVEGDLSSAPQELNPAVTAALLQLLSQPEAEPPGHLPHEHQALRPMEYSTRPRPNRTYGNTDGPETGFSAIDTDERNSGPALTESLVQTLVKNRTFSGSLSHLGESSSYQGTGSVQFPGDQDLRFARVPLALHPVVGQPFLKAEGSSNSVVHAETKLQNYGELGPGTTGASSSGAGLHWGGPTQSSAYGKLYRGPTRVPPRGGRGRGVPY
Chain of CDK12/CycK complex (O75909 whole entry partner, species assumed): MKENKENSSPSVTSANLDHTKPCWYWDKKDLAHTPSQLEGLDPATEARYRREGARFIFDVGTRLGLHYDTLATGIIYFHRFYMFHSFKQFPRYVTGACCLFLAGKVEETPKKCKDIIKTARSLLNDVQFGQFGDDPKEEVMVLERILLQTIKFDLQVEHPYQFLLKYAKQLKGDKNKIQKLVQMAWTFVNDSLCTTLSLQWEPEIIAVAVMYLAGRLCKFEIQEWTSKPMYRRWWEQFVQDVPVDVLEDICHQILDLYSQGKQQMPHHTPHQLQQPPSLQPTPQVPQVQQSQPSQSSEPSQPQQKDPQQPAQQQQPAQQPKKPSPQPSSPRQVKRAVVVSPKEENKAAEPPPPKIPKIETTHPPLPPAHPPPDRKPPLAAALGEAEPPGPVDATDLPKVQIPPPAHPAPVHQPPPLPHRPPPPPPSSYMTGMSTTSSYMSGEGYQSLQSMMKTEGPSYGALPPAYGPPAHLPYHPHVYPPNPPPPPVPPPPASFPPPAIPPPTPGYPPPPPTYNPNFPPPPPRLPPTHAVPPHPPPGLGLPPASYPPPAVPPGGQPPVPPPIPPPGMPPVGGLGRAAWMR

In the experiment the target is CDK12/CycK complex (Homo sapiens, UniProt Q9NYV4). Briefly: Measurement of CDK12 inhibitory activity by binding assay (TR-FRET, 66 nM BODIPY-FL-labeled AT-7519). The note with it: inhibitory rate against CDK12 at 1 μM test compound, 66 nM BODIPY-FL-labeled AT-7519, 2 nM CDK12/CycK. The protocol:
Experimental Example 1: CDK12 Binding Assay
(3) Measurement of CDK12 Inhibitory Activity by Binding Assay
His-tagged CDK12/CycK complex was added to a binding assay buffer supplemented with BODIPY-FL labeled AT-7519, terbium-labeled streptavidin and biotin-labeled anti-histidine antibody, and the mixture was stood for not less than 60 min at room temperature. This solution was added to an assay plate containing a test compound dispensed therein, and the mixture was left standing for 120 min at room temperature. The final concentration of CDK12/CycK complex, BODIPY-FL-labeled AT-7519, terbium-labeled streptavidin and biotin-labeled anti-histidine antibody was set to 2 nM, 66 nM, 0.2 nM, and 0.4 nM, respectively. The fluorescence intensity derived from terbium and BODIPY-FL was measured using Envision. The signal value of each well was determined using the TR-FRET ratio calculated by the following formula. TR-FRET ratio=(fluorescence value of BODIPY-FL)÷(fluorescence value of terbium)
The inhibitory rate (%) of the test compound against CDK12 was calculated by the following formula. Inhibitory rate (%)=(1−(TR-FRET ratio of test compound−blank)÷(control−blank))×100
The TR-FRET ratio of the CDK12 enzyme reaction mixture under compound non-addition conditions is indicated as control, and the TR-FRET ratio under 3 μM AT-7519 addition conditions is indicated as blank.
The inhibitory rate of the test compound against CDK12 at […] is shown below.
A general note: Time-resolved FRET reads energy transfer from a long-lived donor to a nearby acceptor.
`COc1ncc(-c2ccc(N(C(=O)N[C@@H](C)c3ccccc3)[C@H]3CC[C@H](Nc4ncc(C(F)(F)F)c(N5CC(C)(O)C5)n4)CC3)nc2)cn1` [Example 633, 1-(trans-4-((4-(3-hydroxy-3-methylazetidin-1-yl)-5-(trifluoromethyl)pyrimidin-2-yl)amino)cyclohexyl)-1-(5-(2-methoxypyrimidin-5-yl)pyridin-2-yl)-3-((1S)-1-phenylethyl)urea]: the inhibition at 1 µM is 102%.
For the compound `COc1ncc(-c2ccc(N(C(=O)COc3ccccc3)[C@H]3CC[C@H](Nc4ncc(C(F)(F)F)c(N5CC(C)(O)C5)n4)CC3)nc2)cn1` [Example 623, N-(trans-4-((4-(3-hydroxy-3-methylazetidin-1-yl)-5-(trifluoromethyl)pyrimidin-2-yl)amino)cyclohexyl)-N-(5-(2-methoxypyrimidin-5-yl)pyridin-2-yl)-2-phenoxyacetamide], the inhibition at 1 µM came to 100%.
Turning to `Cn1cc(-c2ccc(N(C(=O)NCc3ccccc3)[C@H]3CC[C@H](Nc4ncc(C#N)c(NC5COC5)n4)CC3)nn2)cn1` [Example 532, 3-benzyl-1-(trans-4-((5-cyano-4-(oxetan-3-ylamino)pyrimidin-2-yl)amino)cyclohexyl)-1-(6-(1-methyl-1H-pyrazol-4-yl)pyridazin-3-yl)urea], the inhibition at 1 µM worked out at 106%.
Regarding `COc1ncc(-c2ccc(N(C(=O)OCc3ccccn3)[C@H]3CC[C@H](Nc4ncc(C(F)(F)F)c(N5CC(C)(O)C5)n4)CC3)nc2)cn1` [Example 628, pyridin-2-ylmethyl (trans-4-((4-(3-hydroxy-3-methylazetidin-1-yl)-5-(trifluoromethyl)pyrimidin-2-yl)amino)cyclohexyl) (5-(2-methoxypyrimidin-5-yl)pyridin-2-yl)carbamate], the inhibition at 1 µM amounted to 100%.
On to `COc1ncc(-c2ccc(N(C(=O)COc3ccccc3)[C@H]3CC[C@H](Nc4ncc(C(F)(F)F)c(OC5COC5)n4)CC3)nc2)cn1` [Example 627, N-(5-(2-methoxypyrimidin-5-yl)pyridin-2-yl)-N-(trans-4-((4-(oxetan-3-yloxy)-5-(trifluoromethyl)pyrimidin-2-yl)amino)cyclohexyl)-2-phenoxyacetamide], for which the inhibition at 1 µM is 98%.
As for `COc1ncc(-c2ccc(N(C(=O)NCc3ccccc3)[C@H]3CC[C@H](Nc4ncc(C(F)(F)F)c(N5CC(C)(O)C5)n4)CC3)nc2)cn1` [Example 625, 3-benzyl-1-(trans-4-((4-(3-hydroxy-3-methylazetidin-1-yl)-5-(trifluoromethyl)pyrimidin-2-yl)amino)cyclohexyl)-1-(5-(2-methoxypyrimidin-5-yl)pyridin-2-yl)urea], the inhibition at 1 µM came to 103%.
To `Cn1cc(-c2ccc(N(C(=O)NCc3ccccc3)[C@H]3CC[C@H](Nc4ncc(C#N)c(N5CC(C)(O)C5)n4)CC3)nc2)cn1` [Example 482, 3-benzyl-1-(trans-4-((5-cyano-4-(3-hydroxy-3-methylazetidin-1-yl)pyrimidin-2-yl)amino)cyclohexyl)-1-(5-(1-methyl-1H-pyrazol-4-yl)pyridin-2-yl) urea] belongs 104%; to `Cc1cc(-c2nc(N[C@H]3CC[C@H](N(C(=O)NCc4ccccc4)c4ccc(-c5cnn(C)c5)nn4)CC3)ncc2C#N)[nH]n1` [Example 542, 3-benzyl-1-(trans-4-((5-cyano-4-(3-methyl-1H-pyrazol-5-yl)pyrimidin-2-yl)amino)cyclohexyl)-1-(6-(1-methyl-1H-pyrazol-4-yl)pyridazin-3-yl)urea], 100%.
As for `COc1ncc(-c2cnc(N(C(=O)NCc3ccccc3)[C@H]3CC[C@H](Nc4ncc(C#N)c(N5CC(C)(O)C5)n4)CC3)cn2)cn1` [Example 620, 3-benzyl-1-(trans-4-((5-cyano-4-(3-hydroxy-3-methylazetidin-1-yl)pyrimidin-2-yl)amino)cyclohexyl)-1-(5-(2-methoxypyrimidin-5-yl)pyrazin-2-yl)urea], the inhibition at 1 µM was found to be 97%.
`COc1ncc(-c2ccc(N(C(=O)N[C@H](C)c3ccccc3)[C@H]3CC[C@H](Nc4ncc(C(F)(F)F)c(N5CC(C)(O)C5)n4)CC3)nc2)cn1` [Example 631, 1-(trans-4-((4-(3-hydroxy-3-methylazetidin-1-yl)-5-(trifluoromethyl)pyrimidin-2-yl)amino)cyclohexyl)-1-(5-(2-methoxypyrimidin-5-yl)pyridin-2-yl)-3-((1R)-1-phenylethyl)urea]: the inhibition at 1 µM was 103%.
For `Cn1cc(-c2cnc(N(C(=O)NCc3ccccc3)[C@H]3CC[C@H](Nc4ncc(C#N)c(-c5ccc(C#N)s5)n4)CC3)cn2)cn1` [Example 495, 3-benzyl-1-(trans-4-((5-cyano-4-(5-cyano-2-thienyl)pyrimidin-2-yl)amino)cyclohexyl)-1-(5-(1-methyl-1H-pyrazol-4-yl)pyrazin-2-yl)urea], the inhibition at 1 µM was 81%.
Regarding `COc1ncc(-c2ccc(N(C(=O)NCc3ccccc3)[C@H]3CC[C@H](Nc4ncc(C#N)c(N5CCCC(O)CC5)n4)CC3)nc2)cn1` (stereo partly drawn) [Example 595, 3-benzyl-1-(trans-4-((5-cyano-4-(4-hydroxyazepan-1-yl)pyrimidin-2-yl)amino)cyclohexyl)-1-(5-(2-methoxypyrimidin-5-yl)pyridin-2-yl)urea], the inhibition at 1 µM was 104%.
As for `COc1ncc(-c2cnc(N(C(=O)NCc3ccccc3)[C@H]3CC[C@H](Nc4ncc(C(F)(F)F)c(OC5COC5)n4)CC3)nc2)cn1` [Example 606, 3-benzyl-1-(2′-methoxy-5,5′-bipyrimidin-2-yl)-1-(trans-4-((4-(oxetan-3-yloxy)-5-(trifluoromethyl)pyrimidin-2-yl)amino)cyclohexyl)urea], the inhibition at 1 µM was found to be 96%.
On to `Cn1cc(-c2ccc(N(C(=O)NCc3ccccc3)[C@H]3CC[C@H](Nc4ncc(C#N)c(NCCCO)n4)CC3)cc2)cn1` [Example 199, 3-benzyl-1-(trans-4-((5-cyano-4-((3-hydroxypropyl)amino)pyrimidin-2-yl)amino)cyclohexyl)-1-(4-(1-methyl-1H-pyrazol-4-yl)phenyl)urea], for which the inhibition at 1 µM was 101%.
`COc1ncc(-c2ccc(N(C(=O)NCc3ccccc3)[C@H]3CC[C@H](Nc4ncc(C#N)c(N5CC(C)(O)C5)n4)CC3)nc2)cn1` [Example 626, 3-benzyl-1-(trans-4-((5-cyano-4-(3-hydroxy-3-methylazetidin-1-yl)pyrimidin-2-yl)amino)cyclohexyl)-1-(5-(2-methoxypyrimidin-5-yl)pyridin-2-yl)urea]: the inhibition at 1 µM amounted to 105%.
Turning to `COc1ncc(-c2ccc(N(C(=O)NCc3ccccc3)[C@H]3CC[C@H](Nc4ncc(C(F)(F)F)c(N5CCCC(O)CC5)n4)CC3)nc2)cn1` (stereo partly drawn) [Example 592, 3-benzyl-1-(trans-4-((4-(4-hydroxyazepan-1-yl)-5-(trifluoromethyl)pyrimidin-2-yl)amino)cyclohexyl)-1-(5-(2-methoxypyrimidin-5-yl)pyridin-2-yl)urea], the inhibition at 1 µM came out at 101%.
Regarding `Cc1cc(-c2nc(N[C@H]3CC[C@H](N(C(=O)NCc4ccccc4)c4cnc(-c5cnn(C)c5)cn4)CC3)ncc2C#N)[nH]n1` [Example 552, 3-benzyl-1-(trans-4-((5-cyano-4-(3-methyl-1H-pyrazol-5-yl)pyrimidin-2-yl)amino)cyclohexyl)-1-(5-(1-methyl-1H-pyrazol-4-yl)pyrazin-2-yl) urea], the inhibition at 1 µM was 98%.
Regarding `COc1ncc(-c2cnc(N(C(=O)OCc3ccccc3)[C@H]3CC[C@H](Nc4ncc(C#N)c(N5CC(C)(O)C5)n4)CC3)nc2)cn1` [Example 619, benzyl (trans-4-((5-cyano-4-(3-hydroxy-3-methylazetidin-1-yl)pyrimidin-2-yl)amino)cyclohexyl) (2′-methoxy-5,5′-bipyrimidin-2-yl)carbamate], the inhibition at 1 µM was determined as 98%.
To `COc1ncc(-c2ccc(N(C(=O)OCc3ccccn3)[C@H]3CC[C@H](Nc4ncc(C(F)(F)F)c(OC5COC5)n4)CC3)nc2)cn1` [Example 629, pyridin-2-ylmethyl (5-(2-methoxypyrimidin-5-yl)pyridin-2-yl) (trans-4-((4-(oxetan-3-yloxy)-5-(trifluoromethyl)pyrimidin-2-yl)amino)cyclohexyl)carbamate] belongs 100%.
Turning to `COc1ncc(-c2ccc(N(C(=O)COc3ccccc3)[C@H]3CC[C@H](Nc4ncc(C#N)c(NC5COC5)n4)CC3)nc2)cn1` [Example 587, N-(trans-4-((5-cyano-4-(oxetan-3-ylamino)pyrimidin-2-yl)amino)cyclohexyl)-N-(5-(2-methoxypyrimidin-5-yl)pyridin-2-yl)-2-phenoxyacetamide], the inhibition at 1 µM was determined as 102%.
To `COc1ncc(-c2ccc(N(C(=O)NCc3ccccn3)[C@H]3CC[C@H](Nc4ncc(C(F)(F)F)c(N5CC(C)(O)C5)n4)CC3)nc2)cn1` [Example 630, 1-(trans-4-((4-(3-hydroxy-3-methylazetidin-1-yl)-5-(trifluoromethyl)pyrimidin-2-yl)amino)cyclohexyl)-1-(5-(2-methoxypyrimidin-5-yl)pyridin-2-yl)-3-(pyridin-2-ylmethyl)urea] belongs 104%.
As for `COc1ncc(-c2ccc(N(C(=O)OCc3ccccc3)[C@H]3CC[C@H](Nc4ncc(C#N)c(N5CCCC(O)CC5)n4)CC3)nc2)cn1` (stereo partly drawn) [Example 599, benzyl (trans-4-((5-cyano-4-(4-hydroxyazepan-1-yl)pyrimidin-2-yl)amino)cyclohexyl) (5-(2-methoxypyrimidin-5-yl)pyridin-2-yl)carbamate], the inhibition at 1 µM stood at 102%.

(Values after patent publication US11584737B2, “Heterocyclic compound” (TAKEDA PHARMACEUTICAL COMPANY LIMITED, priority 2018, dated 2023).)
